Publication PMC5538626, “Structural and functional analysis of the GABARAP interaction motif (GIM)” (EMBO Reports, 2017)
Ends that are not written are not given here.

How the values were obtained:
[1] = test system: LC3 subfamily proteins (LC3A, LC3B); assay: NMR titration of 15N-labelled LC3 proteins with PLEKHM1-LIR peptide; assay type: binding, human; settings: 298 K, 0.18 mM 15N-labelled protein, up to four times peptide excess
Method: (§1) All NMR experiments were performed at 298 K on Bruker Avance spectrometers operating at proton frequencies of 500, 600 and 700 MHz. Titration experiments were performed with a 0.18 mM ^15N‐labelled LC3 and GABARAP protein samples to which the non‐labelled PLEKHM1‐LIR peptide was added stepwise until four times excess to LC3 proteins or two times excess to the GABARAP proteins. Backbone HN resonances for selected mATG8 proteins in complex with the PLEKHM1‐LIR peptide were assigned using [^15N‐^1H]‐TROSY versions of 3D HNCACB experiment. For assignment of PLEKHM1‐LIR peptide backbone HN resonances in complexes with the LC3 and GABARAP proteins, [^15N‐^1H]‐TROSY versions of 3D HNCACB experiment and hCcconh‐TOCSY experiment were used.

[2] = test system: GABARAP subfamily proteins (GABARAP-L1, GABARAP-L2); assay: NMR titration of 15N-labelled GABARAP proteins with PLEKHM1-LIR peptide; assay type: binding, human; settings: 298 K, 0.18 mM 15N-labelled protein, up to two times peptide excess
Method: as §1

LC3B K30R = molecular target: T1, LC3B K30R (Homo sapiens, UniProt Q9GZQ8, K30R); assay: ITC titration of PLEKHM1-LIR peptide into LC3B K30R mutant; assay type: binding
T1 construct: modified Ub-leader (ubiquitin fusion leader) (N); made in house; host or cells: E. coli NEB T7 Express
Method: The chimeric constructs were expressed as a His‐tag fusion protein in E. coli BL21(DE3) cells. The cells were induced with 0.3 mM IPTG at OD600 0.6 for 16 h at 26°C. The cell pellets were lysed using mechanical sonication in lysis buffer (20 mM Tris–HCl pH 9.0, 100 mM NaCl, 10 mM imidazole, supplemented with 0.1% Triton X‐100). The proteins were purified using Ni‐NTA beads (GE Healthcare) and the His‐tag was cleaved using thrombin (Invitrogen) at room temperature for 16 h. The last step was gel filtration chromatography using a Superdex S200/300 GL column (GE Healthcare). The proteins were concentrated using spin concentrators (Vivaspin). For ITC and NMR studies, the non‐labelled and stable isotopes labelled LC3 and GABARAP proteins were obtained based on the protocols described elsewhere 30, 39. Here, E. coli NEB T7 Express culture transformed with corresponding plasmids were grown till OD600 nm = 1.0 and protein expression was induced with 0.2 mM IPTG. The cultures were incubated at 25°C for 8–12 h before cell harvesting. Isolation and purification procedures were similar to those reported in Ref. 22, 40. Before experiments, all proteins and peptides were equilibrated with a buffer containing 50 mM Na2HPO4, 100 mM NaCl at pH 7.0, and supplied with 5 mM protease inhibitor cocktail.
The protocol for preparation of non‐labelled and ^13C,^15N‐labelled PLEKHM1‐LIR peptide was slightly modified to achieve highest yield of the peptide. The 50 ml M9 culture was inoculated with NEB T7 cell transformed with pET39_Ub63‐PLEKHM1‐LIR plasmid and grown overnight at 37°. The collected cells were resuspended in 2 l of either LB or M9 media contained 1.5 g ^15N‐labelled NH4Cl and 3.0 g of ^13C‐labelled glucose. The cultures were grown at 37° till A(600 nm) = 0.9 and supplied with 1 mM of IPTG to induce Ub63‐PLEKHM1‐LIR overexpression (3 h at 37°). After that cells were harvested by centrifugation, re‐suspended in buffer contained 50 mM Tris–HCl pH = 7.9, 200 mM NaCl, 5% glycerol, 0.1 mg/ml DNase A and 4 mM protease inhibitor cocktail. After cell lysis by French press, debris was removed by centrifugation and clear supernatant was applied onto the column contained Ni‐NTA Sepharose equilibrated with the loading buffer (50 mM Tris–HCl pH = 7.9, 250 mM NaCl, 1% glycerol and 20 mM imidazole). Elution was performed with 400 mM imidazole in the same buffer. An aliquot of pure Ub63‐PLEKHM1‐LIR fractions was further purified by gel filtration on Superdex75 26 × 60 column for control ITC and analytical size exclusion chromatography experiments, remaining fusion protein was processed with the TEV‐protease and PLEKHM1‐LIR peptide was purified to 95% purity by reverse Ni‐NTA chromatography and followed gel filtration on Superdex75 26 × 60 column. Peak maximum of peptide was detected at […] (void volume 115 ml). Pure peptide was concentrated in Amicon concentrators with cut‐off of 3 kDa (> 95% retention).
All titration experiments were performed at 25°C using a VP‐ITC microcalorimeter (Malvern Instruments Ltd, UK). The ITC data were analysed with the ITC‐Origin 7.0 software with a “one‐site” binding model. The peptides at concentrations of 0.4 mM were titrated into 0.020 mM LC3 and GABARAP proteins in 26 steps. The protein and peptide concentrations were calculated from the UV absorption at 280 nm by NanoDrop spectrophotometer (Thermo Fisher Scientific, DE, USA).

## GAMGPQQEDEWVNVQYPD [PLEKHM1‐LIR WT]
[1]
  exchange behaviour upon titration, LC3 subfamily: intermediate exchange
[2]
  exchange behaviour upon titration, GABARAP subfamily: slow exchange
LC3B K30R; 25°C, pH 7.0, LC3B K30R
  -T*DS: -1.08 kcal/mol
  DG (ΔG): -7.20 kcal/mol
  DH (ΔH): -6.1 ± 0.2 kcal/mol
  DS (ΔS): +3.61 cal mol-1 K-1
  KA: 0.19±0.01 *10^6 M-1
  N: 1.11±0.02
LC3B K30R; within experimental error
  increase in favorable binding enthalpy vs wild type LC3B: 0.3 kcal/mol
